Data from patent publication US20220315578A1, “BRD9 BIFUNCTIONAL DEGRADERS AND THEIR METHODS OF USE” (NOVARTIS AG, priority 2019, published 2022).

Biological target: T1, BRD9-GFP (Homo sapiens, UniProt Q9H8M2)
T1 construct: CHYSEL (2A cis-acting hydrolase element) remnant after GFP; mCherry is split off as a separate protein (C); expressed in transfected cells; host or cells: HEK293A cells (Invitrogen R70507), lentiviral transduction with pLenti6-BRD9-GFP-CHYSEL-mCherry, blasticidin selection
T1 sequence (Q9H8M2 1-597): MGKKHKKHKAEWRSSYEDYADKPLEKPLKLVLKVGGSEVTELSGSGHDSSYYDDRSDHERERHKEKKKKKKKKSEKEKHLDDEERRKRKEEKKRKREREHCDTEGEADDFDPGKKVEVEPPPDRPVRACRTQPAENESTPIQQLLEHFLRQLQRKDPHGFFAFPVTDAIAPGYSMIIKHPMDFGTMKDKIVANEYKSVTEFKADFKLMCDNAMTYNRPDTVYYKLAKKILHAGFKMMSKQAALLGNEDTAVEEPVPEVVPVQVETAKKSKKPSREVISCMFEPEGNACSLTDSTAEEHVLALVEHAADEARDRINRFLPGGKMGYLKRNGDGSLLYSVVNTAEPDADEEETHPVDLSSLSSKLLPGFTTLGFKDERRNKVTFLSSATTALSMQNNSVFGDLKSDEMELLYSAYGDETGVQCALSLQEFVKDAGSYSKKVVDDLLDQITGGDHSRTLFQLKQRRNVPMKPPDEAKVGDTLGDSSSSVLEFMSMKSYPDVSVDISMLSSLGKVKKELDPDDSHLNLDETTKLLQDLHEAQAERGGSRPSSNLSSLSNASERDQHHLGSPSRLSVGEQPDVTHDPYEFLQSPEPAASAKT
Assay: BRD9-GFP protein abundance flow cytometry assay in HEK293A cells
Format: cell-based
Conditions: HEK293A-BRD9-GFP-CHYSEL-mCherry cells; for BRD9 Deg Amax %: 24 h, % protein remaining at the concentration at which maximum degradation is seen; for DC50: 24 h at 37° C., 10-point 1:3 dilution, concentration at which 50% maximal degradation was observed
In short: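 HEK293A cells stably express bicistronic BRD9-GFP-CHYSEL-mCherry and received 24 h treatment at 37° C with a 10-point, 3-fold dilution series from […], in 0.1% DMSO and duplicate. Median GFP/mCherry ratio of 5,000 single cells by flow cytometry, normalized to mCherry-only cells (0%) and DMSO (100%), gave DC50 and Amax (% protein remaining).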

SMILES | BRD9 Deg Amax % | DC50
CCCn1cc(-c2cc(OC)c(CCN3CC[C@@H](OC4CCN(C(=O)c5ccc(Cl)c(N6CCC(=O)NC6=O)c5)CC4)[C@H](F)C3)c(OC)c2)c(C)c(C)c1=O [Compound E55, 1-(2-chloro-5-(4-(((3R,4R)-1-(4-(4,5-dimethyl-6-oxo-1-propyl-1,6-dihydropyridin-3-yl)-2,6-dimethoxyphenethyl)-3-fluoropiperidin-4-yl)oxy)piperidine-1-carbonyl)phenyl)dihydropyrimidine-2,4(1H,3H)-dione] | 18.12% | 5 nM
COc1ccc(C(=O)N2CCC(OC3CCN(Cc4c(OC)cc(-c5cc(C)c(=O)n(C)c5)cc4OC)CC3)CC2)cc1N1CCC(=O)NC1=O [Compound A1] | 10.72% | 54 nM
COc1cc(-c2cn(C)c(=O)c3cnccc23)cc(OC)c1CN1CCC(OC2CCN(C(=O)c3ccc(C)c(N4CCC(=O)NC4=O)c3)CC2)CC1 [Compound A33, 1-(5-(4-((1-(2,6-Dimethoxy-4-(2-methyl-1-oxo-1,2-dihydro-2,7-naphthyridin-4-yl)benzyl)piperidin-4-yl)oxy)piperidine-1-carbonyl)-2-methylphenyl)dihydropyrimidine-2,4(1H,3H)-dione] | 13.30% | 34 nM
CCCCn1cc(-c2cc(OC)c(CCN3CCC(OC4CCN(CCn5cccc(CN6CCC(=O)NC6=O)c5=O)CC4)CC3)c(OC)c2)c2ccncc2c1=O [Compound D4, 1-((1-(2-(4-((1-(4-(2-butyl-1-oxo-1,2-dihydro-2,7-naphthyridin-4-yl)-2,6-dimethoxyphenethyl)piperidin-4-yl)oxy)piperidin-1-yl)ethyl)-2-oxo-1,2-dihydropyridin-3-yl)methyl)dihydropyrimidine-2,4(1H,3H)-dione] | 16.34% | 3 nM
CCCCn1cc(-c2ccc(O[C@H]3CC[C@@H](OC4CCN(CCn5cccc(CN6CCC(=O)NC6=O)c5=O)CC4)CC3)cc2)c2ccncc2c1=O [Compound E35, 1-((1-(2-(4-(((cis)-4-(4-(2-butyl-1-oxo-1,2-dihydro-2,7-naphthyridin-4-yl)phenoxy)cyclohexyl)oxy)piperidin-1-yl)ethyl)-2-oxo-1,2-dihydropyridin-3-yl)methyl)dihydropyrimidine-2,4(1H,3H)-dione] | 15.90% | 6 nM
COc1cc(-c2cc(C)c(=O)n(C)c2)cc(OC)c1CN1CCC(OC2CCN(C(=O)COc3ccc(N4CCC(=O)NC4=O)cc3)CC2)CC1 [Compound A8, 1-(4-(2-(4-((1-(4-(1,5-Dimethyl-6-oxo-1,6-dihydropyridin-3-yl)-2,6-dimethoxybenzyl)piperidin-4-yl)oxy)piperidin-1-yl)-2-oxoethoxy)phenyl)dihydropyrimidine-2,4(1H,3H)-dione] | 16.25% | 70 nM
CCCCn1cc(-c2ccc(O[C@H]3CC[C@@H](OC4CCN(C(=O)c5ccc(OC)c(N6CCC(=O)NC6=O)c5)CC4)CC3)cc2)c2ccncc2c1=O [Compound E3, 1-(5-(4-(((cis)-4-(4-(2-butyl-1-oxo-1,2-dihydro-2,7-naphthyridin-4 yl)phenoxy)cyclohexyl)oxy)piperidine-1-carbonyl)-2-methoxyphenyl)dihydropyrimidine-2,4(1H,3H)-dione] | 18.38% | 2 nM
COc1cc(-c2cn(C)c(=O)c3cnccc23)c(OC)cc1CCN1CCC(OC2CCN(C(=O)c3ccc(OC)c(N4CCC(=O)NC4=O)c3)CC2)CC1 [Compound A41, 1-(5-(4-((1-(2,5-Dimethoxy-4-(2-methyl-1-oxo-1,2-dihydro-2,7-naphthyridin-4-yl)phenethyl)piperidin-4-yl)oxy)piperidine-1-carbonyl)-2-methoxyphenyl)dihydropyrimidine-2,4(1H,3H)-dione] | 13.54% | 60 nM
COc1cc(-c2cn(C)c(=O)c3cnccc23)c(OC)cc1CN1CCC(OC2CCN(C(=O)c3ccc(Cl)c(N4CCC(=O)NC4=O)c3)CC2)CC1 [Compound A30, 1-(2-Chloro-5-(4-((1-(2,5-dimethoxy-4-(2-methyl-1-oxo-1,2-dihydro-2,7-naphthyridin-4-yl)benzyl)piperidin-4-yl)oxy)piperidine-1-carbonyl)phenyl)dihydropyrimidine-2,4(1H,3H)-dione] | 13.99% | 16 nM
COc1ccc(C(=O)N2CCC(OC3CCN(CCc4c(OC)cc(-c5cn(C)c(=O)c6cnccc56)cc4OC)CC3)CC2)cc1N1CCC(=O)NC1=O [Compound A32, 1-(5-(4-((1-(2,6-Dimethoxy-4-(2-methyl-1-oxo-1,2-dihydro-2,7-naphthyridin-4-yl)phenethyl)piperidin-4-yl)oxy)piperidine-1-carbonyl)-2-methoxyphenyl)dihydropyrimidine-2,4(1H,3H)-dione] | 16.20% | 6 nM

Other lines, results leading:

BRD9 Deg Amax % | DC50 | SMILES
10.95% | 27 nM | CCCCn1cc(-c2cc(OC)c(CN3CCC(OC4CCN(C(=O)c5ccc(OC)c(N6CCC(=O)NC6=O)c5)CC4)CC3)cc2OC)c2ccncc2c1=O [Compound B3, 1-(5-(4-((1-(4-(2-butyl-1-oxo-1,2-dihydro-2,7-naphthyridin-4-yl)-2,5-dimethoxybenzyl)piperidin-4-yl)oxy)piperidine-1-carbonyl)-2-methoxyphenyl)dihydropyrimidine-2,4(1H,3H)-dione]
16.11% | 4 nM | CCCCn1cc(-c2cc(F)c(CCN3CCC(OC4CCN(C(=O)c5ccc(Cl)c(N6CCC(=O)NC6=O)c5)CC4)CC3)c(OC)c2)c2ccncc2c1=O [Compound E53, 1-(5-(4-((1-(4-(2-butyl-1-oxo-1,2-dihydro-2,7-naphthyridin-4-yl)-2-fluoro-6-methoxyphenethyl)-piperidin-4-yl)oxy)piperidine-1-carbonyl)-2-chlorophenyl)dihydro-pyrimidine-2,4(1H,3H)-dione]
18.10% | 1 nM | CCCCn1cc(-c2cc(F)c(O[C@@H]3CCN(CCC4CCN(C(=O)c5ccc(OC)c(N6CCC(=O)NC6=O)c5)CC4)C[C@H]3F)c(F)c2)c2ccncc2c1=O [Compound E14, 1-(5-(4-(2-((3R,4R)-4-(4-(2-butyl-1-oxo-1,2-dihydro-2,7-naphthyridin-4-yl)-2,6-difluorophenoxy)-3-fluoropiperidin-1-yl)ethyl)piperidine-1-carbonyl)-2-meth-oxyphenyl)dihydro-pyrimidine-2,4(1H,3H)-dione]
17.54% | 7 nM | CCCCn1cc(-c2cc(OC)c(OCC3CCN(CC4CCN(C(=O)c5ccc(OC)c(N6CCC(=O)NC6=O)c5)CC4)CC3)c(OC)c2)c2ccncc2c1=O [Compound B7, 1-(5-(4-((4-((4-(2-butyl-1-oxo-1,2-dihydro-2,7-naphthyridin-4-yl)-2,6-dimethoxyphenoxy)methyl)piperidin-1-yl)methyl)piperidine-1-carbonyl)-2-methoxyphenyl)dihydropyrimidine-2,4(1H,3H)-dione]
17.34% | 4 nM | CCCCn1cc(-c2ccc(OC3CCN(CC4CCN(C(=O)c5ccc(OC)c(N6CCC(=O)NC6=O)c5)CC4)CC3)cc2)c2ccncc2c1=O [Compound E42, 1-(5-(4-((4-(4-(2-butyl-1-oxo-1,2-dihydro-2,7-naphthyridin-4-yl)phenoxy)piperidin-1-yl)methyl)piperidine-1-carbonyl)-2-methoxyphenyl)dihydropyrimidine-2,4(1H,3H)-dione]
13.14% | 4 nM | CCCCn1cc(-c2ccc(OC3CCN(CC4CCN(C(=O)c5ccc(OC)c(N6CCC(=O)NC6=O)c5)CC4)CC3)c(OC)c2)c2ccncc2c1=O [Compound B5, 1-(5-(4-((4-(4-(2-butyl-1-oxo-1,2-dihydro-2,7-naphthyridin-4-yl)-2-methoxyphenoxy)piperidin-1-yl)methyl)piperidine-1-carbonyl)-2-methoxyphenyl)dihydropyrimidine-2,4(1H,3H)-dione]
19.65% | 1 nM | CCCCn1cc(-c2cc(F)c(O[C@@H]3CCN(CC4CCN(C(=O)c5ccc(OC)c(N6CCC(=O)NC6=O)c5)CC4)C[C@H]3F)c(F)c2)c2ccncc2c1=O [Compound E56, 1-(5-(4-(((3R,4R)-4-(4-(2-butyl-1-oxo-1,2-dihydro-2,7-naphthyridin-4-yl)-2,6-difluorophenoxy)-3-fluoropiperidin-1-yl)methyl)piperidine-1-carbonyl)-2-methoxyphenyl)dihydropyrimidine-2,4(1H,3H)-dione]
